Results as given in patent US9655968B2, “Baclofen solution for low-volume therapeutic delivery” (Wayne State University, priority 2007, dated 2017).
Converted amounts (≈) assume the structure as drawn. Where two headings read alike, the source gives them in different places.

Tests used:
[1] = Baclofen solubilization study in multivalent physiologic ion (MPI) solution; assay type: physicochemical; details: aqueous buffer, thermodynamic from solid
Description: Multivalent physiologic ion solution formation. A solution (A) is produced with 8.66 g NaCl, 0.224 g KCl, 0.206 g CaCl2.2H2O and 0.163 g MgCl2.6H2O dissolving in 500 mL of deionized water. A solution (B) is produced with 0.214 g Na2HPO4.7H2O and 0.027 g NaH2PO4.H2O dissolving in 450 mL of water. The pH is adjusted to 6.0, 6.5, 7.0, 7.3, 7.6 and 8.0 as necessary with either NaOH or H3PO4 and dilution to final volume of 500 mL with deionized water. A final multivalent physiologic ion solution is obtained by mixing equal parts of Solution A and B. pH is tested and adjusted to the desired final pH if necessary. All reagents are available from sources known in the art. […]
Baclofen solubilization study in multivalent physiologic ion solution. […] The aliquots are analyzed by high performance liquid chromatography (HPLC). […] Baclofen concentrations above 4 mg/ml are readily achieved.
Analyses of baclofen solutions to confirm concentrations. Baclofen concentrations of Examples 2 and 3 are determined to confirm soluble levels in MPI or aCSF in the inventive solutions. Baclofen concentrations are quantified by LC/MS/MS using an Applied Biosystems API 400 electrospray triple quadrupole mass spectrometer. […] The transition between 214.1 and 151.2 is used for quantification. […]
Analyses of baclofen solutions to confirm concentrations. […] Baclofen concentrations are determined within 10% of expected values.

[2] = cited from earlier work
[3] = over a 10-year period, near neutral pH, room temperature; calculated, Ahuja 1985; cited from earlier work
[4] = LIORESAL INTRATHECAL product insert

solubility ([1]; MPI pH 6.0-8.0, 37° C., aliquots at 2, 5 and 30 min, HPLC, read-out: baclofen concentration achieved in MPI solution): > 4000 µg/mL
solubility ([1]; rapidly achieved without sonication or excessive agitation, read-out: solubility of baclofen in MPI solution): 6000 µg/mL (≈ 28.1 mM)
Compound: NCC(CC(=O)O)c1ccc(Cl)cc1 (stereo not shown) [Baclofen]
solubility in chloroform [2, 4]: insoluble
solubility in methanol [2, 4]: very slightly soluble
solubility in water [2, 4]: slightly soluble
solubility in aqueous saline solution after extreme heating and intense agitation ([2]; heating to as much as 100° C., sonication or high speed stirring, US 2006/0009523): ≤ 12000 µg/mL
baclofen concentration by acid dissolution and back titration method ([2]; initial dissolution at pH below 3.87, then base added, US 2006/0009523): ~10 mg/mL
maximum saline concentration ([2]; saline): 2 mg/mL
solubility in water or saline (known in the art) ([2]; water or saline): below 2 mg/mL
degradation of dissolved baclofen [3]: less than 10%
